From patent US20090156577A1, “7-AMINO ALKYLIDENYL-HETEROCYCLIC QUINOLONES AND NAPHTHYRIDONES” (priority 2004, published 2009)
Converted amounts (≈) assume the structure as drawn. Read-outs that look alike come from different tables or passages of the source.

Test system: pathogenic bacteria
Experiment: MIC by microdilution broth method (NCCLS M7-A4), in vitro antibacterial activity
Assay type: cell-based
In short: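 MIC read after 35 °C incubation for 16–20 h relative to drug-free growth wells. Cation-adjusted Mueller-Hinton broth with two-fold compound dilutions, organisms at roughly 5×10^4 CFU/well final. Method follows NCCLS document M7-A4.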

[1] = Staphylococcus aureus, Organism A: Staphylococcus aureus OC4172, read-out: MIC
[2] = Streptococcus pneumoniae, ATCC49619, Organism E: Streptococcus pneumoniae ATCC 49619, read-out: MIC
[3] = Streptococcus pneumoniae, Organism C: fluoroquinolone-resistant clinical isolate of Streptococcus pneumoniae (QRDR amino acid substitutions)
[4] = Streptococcus pneumoniae, Organism D: fluoroquinolone-resistant clinical isolate of Streptococcus pneumoniae (QRDR amino acid substitutions)
[5] = Streptococcus pneumoniae, Organism B: fluoroquinolone-resistant clinical isolate of Streptococcus pneumoniae (QRDR amino acid substitutions)
[6] = Organism A: Staphylococcus aureus OC4172
[7] = Organism C: fluoroquinolone-resistant clinical isolate of Streptococcus pneumoniae (QRDR amino acid substitutions)
[8] = Organism E: Streptococcus pneumoniae ATCC 49619
[9] = Organism B: fluoroquinolone-resistant clinical isolate of Streptococcus pneumoniae (QRDR amino acid substitutions)
[10] = Organism D: fluoroquinolone-resistant clinical isolate of Streptococcus pneumoniae (QRDR amino acid substitutions)

SMILES: COc1c(N2CCC(=C(Cl)CNC(C)C)CC2)c(F)cc2c(=O)c(C(=O)O)cn(C3CC3)c12 [Compound 196, 7-[4-(1-Chloro-2-isopropylamino-ethylidene)-piperidin-1-yl]-1-cyclopropyl-6-fluoro-8-methoxy-4-oxo-1,4-dihydro-quinoline-3-carboxylic acid]
- MIC [1]: 0.12 µg/mL (≈ 0.251 µM)
- MIC [2]: 0.5 µg/mL (≈ 1.05 µM)
- MIC [3]: 4 µg/mL (≈ 8.37 µM)
- MIC [4]: 2 µg/mL (≈ 4.18 µM)

SMILES: COc1c(N2CCC(=C(F)CN(C)C)CC2)c(F)cc2c(=O)c(C(=O)O)cn(C3CC3)c12 [Compound 199, 1-Cyclopropyl-7-[4-(2-dimethylamino-1-fluoro-ethylidene)-piperidin-1-yl]-6-fluoro-8-methoxy-4-oxo-1,4-dihydro-quinoline-3-carboxylic acid]
- MIC [1]: 0.06 µg/mL (≈ 0.134 µM)
- MIC [2]: 0.25 µg/mL (≈ 0.559 µM)
- MIC [5]: 1 µg/mL (≈ 2.23 µM)
- MIC [3]: 2 µg/mL (≈ 4.47 µM)
- MIC [4]: 1 µg/mL (≈ 2.23 µM)

SMILES: COc1c(N2CCC(=C(CN)CCO)CC2)c(F)cc2c(=O)c(C(=O)O)cn(C3CC3)c12 [Compound 201, 7-[4-(1-Aminomethyl-3-hydroxy-propylidene)-piperidin-1-yl]-1-cyclopropyl-6-fluoro-8-methoxy-4-oxo-1,4-dihydro-quinoline-3-carboxylic acid]
- MIC [1]: 0.12 µg/mL (≈ 0.269 µM)
- MIC [2]: 0.5 µg/mL (≈ 1.12 µM)
- MIC [3]: 2 µg/mL (≈ 4.49 µM)
- MIC [4]: 8 µg/mL (≈ 18 µM)

SMILES: C=C(C)CC(CN)=C1CCN(c2c(F)cc3c(=O)c(C(=O)O)cn(C4CC4)c3c2OC)CC1 [Compound 202, 7-[4-(1-Aminomethyl-3-methyl-but-3-enylidene)-piperidin-1-yl]-1-cyclopropyl-6-fluoro-8-methoxy-4-oxo-1,4-dihydro-quinoline-3-carboxylic acid]
- MIC [1]: 0.5 µg/mL (≈ 1.1 µM)
- MIC [2]: 2 µg/mL (≈ 4.39 µM)
- MIC [5]: 16 µg/mL (≈ 35.1 µM)
- MIC [3]: 16 µg/mL (≈ 35.1 µM)
- MIC [4]: 8 µg/mL (≈ 17.6 µM)

SMILES: C=CCC(CN)=C1CCN(c2c(F)cc3c(=O)c(C(=O)O)cn(C4CC4)c3c2OC)CC1 [Compound 203, 7-[4-(1-Aminomethyl-but-3-enylidene)-piperidin-1-yl]-1-cyclopropyl-6-fluoro-8-methoxy-4-oxo-1,4-dihydro-quinoline-3-carboxylic acid]
- MIC [1]: 0.06 µg/mL (≈ 0.136 µM)
- MIC [2]: 0.12 µg/mL (≈ 0.272 µM)
- MIC [5]: 0.06 µg/mL (≈ 0.136 µM)
- MIC [3]: 1 µg/mL (≈ 2.26 µM)
- MIC [4]: 0.5 µg/mL (≈ 1.13 µM)

SMILES: COc1c(N2CCC(=C(Br)CN)CC2)c(F)cc2c(=O)c(C(=O)O)cn(C3CC3)c12 [Compound 204, 7-[4-(2-Amino-1-bromo-ethylidene)-piperidin-1-yl]-1-cyclopropyl-6-fluoro-8-methoxy-4-oxo-1,4-dihydro-quinoline-3-carboxylic acid]
- MIC [1]: 0.25 µg/mL (≈ 0.52 µM)
- MIC [2]: 0.12 µg/mL (≈ 0.25 µM)
- MIC [5]: 0.5 µg/mL (≈ 1.04 µM)
- MIC [3]: 0.5 µg/mL (≈ 1.04 µM)
- MIC [4]: 0.5 µg/mL (≈ 1.04 µM)

SMILES: NCC(Cl)=C1CN(c2c(F)cc3c(=O)c(C(=O)O)cn(C4CC4)c3c2OC(F)F)C1 [Compound 205, 7-[3-(2-Amino-1-chloro-ethylidene)-azetidin-1-yl]-1-cyclopropyl-8-difluoromethoxy-6-fluoro-4-oxo-1,4-dihydro-quinoline-3-carboxylic acid]
- MIC [1]: 0.25 µg/mL (≈ 0.563 µM)
- MIC [2]: 0.5 µg/mL (≈ 1.13 µM)
- MIC [5]: 2 µg/mL (≈ 4.51 µM)
- MIC [3]: 8 µg/mL (≈ 18 µM)
- MIC [4]: 4 µg/mL (≈ 9.01 µM)

SMILES: CN(CC(Cl)=C1CCN(c2c(F)cc3c(=O)c(C(=O)O)cn(C4CC4)c3c2OC(F)F)CC1)Cc1ccccc1 [Compound 206, 7-{4-[2-(Benzyl-methyl-amino)-1-chloro-ethylidene]-piperidin-1-yl}-1-cyclopropyl-8-difluoromethoxy-6-fluoro-4-oxo-1,4-dihydro-quinoline-3-carboxylic acid]
- MIC [1]: 1 µg/mL (≈ 1.74 µM)
- MIC [2]: 4 µg/mL (≈ 6.94 µM)
- MIC [3]: 4 µg/mL (≈ 6.94 µM)
- MIC [4]: 4 µg/mL (≈ 6.94 µM)

SMILES: CN(CC(F)=C1CCN(c2c(F)cc3c(=O)c(C(=O)O)cn(C4CC4)c3c2OC(F)F)CC1)Cc1ccccc1 [Compound 207, 7-{4-[2-(Benzyl-methyl-amino)-1-fluoro-ethylidene]-piperidin-1-yl}-1-cyclopropyl-8-difluoromethoxy-6-fluoro-4-oxo-1,4-dihydro-quinoline-3-carboxylic acid]
- MIC [1]: 1 µg/mL (≈ 1.79 µM)
- MIC [2]: 4 µg/mL (≈ 7.15 µM)
- MIC [5]: 8 µg/mL (≈ 14.3 µM)
- MIC [3]: 8 µg/mL (≈ 14.3 µM)
- MIC [4]: 2 µg/mL (≈ 3.57 µM)

SMILES: NCC(F)=C1CCN(c2cc3c(cc2F)c(=O)c(C(=O)O)cn3C2CC2)CC1 [Compound 208, 7-[4-(2-Amino-1-fluoro-ethylidene)-piperidin-1-yl]-1-cyclopropyl-6-fluoro-4-oxo-1,4-dihydro-quinoline-3-carboxylic acid]
- MIC [6]: 0.06 µg/mL (≈ 0.154 µM)
- MIC [7]: 2 µg/mL (≈ 5.14 µM)
- MIC [8]: 0.25 µg/mL (≈ 0.642 µM)
- MIC [5]: 0.25 µg/mL (≈ 0.642 µM)
- MIC [4]: 0.25 µg/mL (≈ 0.642 µM)

SMILES: COc1c(N2CC(=C(Cl)CN)C2)ccc2c(=O)c(C(=O)O)cn(C3CC3)c12 [Compound 209, 7-[3-(2-Amino-1-chloro-ethylidene)-azetidin-1-yl]-1-cyclopropyl-8-methoxy-4-oxo-1,4-dihydro-quinoline-3-carboxylic acid]
- MIC [1]: 0.12 µg/mL (≈ 0.308 µM)
- MIC [2]: 2 µg/mL (≈ 5.13 µM)
- MIC [3]: 8 µg/mL (≈ 20.5 µM)
- MIC [4]: 16 µg/mL (≈ 41 µM)

SMILES: CC1COc2c(N3CCC(=CCN)C(O)C3)c(F)cc3c(=O)c(C(=O)O)cn1c23 (stereo not shown) [Compound 210, 9-[4-(2-Amino-ethylidene)-3-hydroxy-piperidin-1-yl]-8-fluoro-3-methyl-6-oxo-2,3-dihydro-6H-1-oxa-3a-aza-phenalene-5-carboxylic acid]
- MIC [1]: 8 µg/mL (≈ 19.8 µM)
- MIC [2]: > 16 µg/mL
- MIC [5]: 16 µg/mL (≈ 39.7 µM)
- MIC [3]: 16 µg/mL (≈ 39.7 µM)

SMILES: CC(CO)=C1CCN(c2c(F)cc3c(=O)c(C(=O)O)cn4c3c2OCC4C)CC1 (stereo not shown) [Compound 211, 8-Fluoro-9-[4-(2-hydroxy-1-methyl-ethylidene)-piperidin-1-yl]-3-methyl-6-oxo-2,3-dihydro-6H-1-oxa-3a-aza-phenalene-5-carboxylic acid]
- MIC [1]: 0.03 µg/mL (≈ 0.0745 µM)
- MIC [2]: 0.5 µg/mL (≈ 1.24 µM)
- MIC [5]: 4 µg/mL (≈ 9.94 µM)
- MIC [3]: 4 µg/mL (≈ 9.94 µM)

SMILES: COc1c(N2CCC(=CCN)CC2)c(F)cc2c(=O)c(C(=O)O)cn(C3CC3)c12 [Compound 212, 7-[4-(2-Amino-ethylidene)-piperidin-1-yl]-1-cyclopropyl-6-fluoro-8-methoxy-4-oxo-1,4-dihydro-quinoline-3-carboxylic acid]
- MIC [1]: 0.06 µg/mL (≈ 0.149 µM)
- MIC [2]: 0.12 µg/mL (≈ 0.299 µM)
- MIC [5]: 1 µg/mL (≈ 2.49 µM)
- MIC [3]: 2 µg/mL (≈ 4.98 µM)
- MIC [4]: 2 µg/mL (≈ 4.98 µM)

SMILES: CNCC(F)=C1CCN(c2c(F)cc3c(=O)c(C(=O)O)cn(C4CC4)c3c2OC)CC1 [Compound 213, 1-Cyclopropyl-6-fluoro-7-[4-(1-fluoro-2-methylamino-ethylidene)-piperidin-1-yl]-8-methoxy-4-oxo-1,4-dihydro-quinoline-3-carboxylic acid]
- MIC [1]: 0.12 µg/mL (≈ 0.277 µM)
- MIC [2]: 0.5 µg/mL (≈ 1.15 µM)
- MIC [3]: 2 µg/mL (≈ 4.61 µM)
- MIC [4]: 2 µg/mL (≈ 4.61 µM)

SMILES: CCNCC(F)=C1CCN(c2c(F)cc3c(=O)c(C(=O)O)cn(C4CC4)c3c2OC)CC1 [Compound 214, 1-Cyclopropyl-7-[4-(2-ethylamino-1-fluoro-ethylidene)-piperidin-1-yl]-6-fluoro-8-methoxy-4-oxo-1,4-dihydro-quinoline-3-carboxylic acid]
- MIC [1]: 0.06 µg/mL (≈ 0.134 µM)
- MIC [2]: 0.25 µg/mL (≈ 0.559 µM)
- MIC [3]: 1 µg/mL (≈ 2.23 µM)
- MIC [4]: 1 µg/mL (≈ 2.23 µM)

SMILES: CNCC(Cl)=C1CCN(c2nc3c(cc2F)c(=O)c(C(=O)O)cn3C2CC2)CC1 [Compound 215, 7-[4-(1-Chloro-2-methylamino-ethylidene)-piperidin-1-yl]-1-cyclopropyl-6-fluoro-4-oxo-1,4-dihydro-[1,8]naphthyridine-3-carboxylic acid]
- MIC [6]: 0.25 µg/mL (≈ 0.594 µM)
- MIC [9]: 2 µg/mL (≈ 4.75 µM)
- MIC [2]: 0.25 µg/mL (≈ 0.594 µM)
- MIC [3]: 2 µg/mL (≈ 4.75 µM)
- MIC [4]: 2 µg/mL (≈ 4.75 µM)

SMILES: CNCC(Cl)=C1CCN(c2nc3c(cc2F)c(=O)c(C(=O)O)cn3C2CC2)CC1 [Compound 216, 7-[4-(1-Chloro-2-methylamino-ethylidene)-piperidin-1-yl]-1-cyclopropyl-6-fluoro-4-oxo-1,4-dihydro-[1,8]naphthyridine-3-carboxylic acid]
- MIC [6]: 0.06 µg/mL (≈ 0.143 µM)
- MIC [9]: 0.12 µg/mL (≈ 0.285 µM)
- MIC [7]: 2 µg/mL (≈ 4.75 µM)
- MIC [10]: 1 µg/mL (≈ 2.38 µM)
- MIC [8]: 0.25 µg/mL (≈ 0.594 µM)

SMILES: CNCC(C)=C1CCN(c2nc3c(cc2F)c(=O)c(C(=O)O)cn3C2CC2)CC1 [Compound 217, 1-Cyclopropyl-6-fluoro-7-[4-(1-methyl-2-methylamino-ethylidene)-piperidin-1-yl]-4-oxo-1,4-dihydro-[1,8]naphthyridine-3-carboxylic acid]
- MIC [6]: 0.25 µg/mL (≈ 0.624 µM)
- MIC [7]: 2 µg/mL (≈ 4.99 µM)
- MIC [10]: 2 µg/mL (≈ 4.99 µM)
- MIC [8]: 0.25 µg/mL (≈ 0.624 µM)

SMILES: CNCC(C)=C1CCN(c2cc3c(cc2F)c(=O)c(C(=O)O)cn3C2CC2)CC1 [Compound 218, 1-Cyclopropyl-6-fluoro-7-[4-(1-methyl-2-methylamino-ethylidene)-piperidin-1-yl]-4-oxo-1,4-dihydro-quinoline-3-carboxylic acid]
- MIC [6]: 0.12 µg/mL (≈ 0.3 µM)
- MIC [7]: 2 µg/mL (≈ 5.01 µM)
- MIC [2]: 0.25 µg/mL (≈ 0.626 µM)
- MIC [4]: 2 µg/mL (≈ 5.01 µM)

SMILES: CNCC(C)=C1CCN(c2cc3c(cc2F)c(=O)c(C(=O)O)cn3C2CC2)CC1 [Compound 219, 1-Cyclopropyl-6-fluoro-7-[4-(1-methyl-2-methylamino-ethylidene)-piperidin-1-yl]-4-oxo-1,4-dihydro-quinoline-3-carboxylic acid]
- MIC [6]: 0.5 µg/mL (≈ 1.25 µM)
- MIC [7]: 8 µg/mL (≈ 20 µM)
- MIC [10]: 4 µg/mL (≈ 10 µM)
- MIC [8]: 0.5 µg/mL (≈ 1.25 µM)
- MIC [5]: 8 µg/mL (≈ 20 µM)

SMILES: CNCC(C)=C1CCN(c2c(F)cc3c(=O)c(C(=O)O)cn(C4CC4)c3c2OC(F)F)CC1 [Compound 220, 1-Cyclopropyl-8-difluoromethoxy-6-fluoro-7-[4-(1-methyl-2-methylamino-ethylidene)-piperidin-1-yl]-4-oxo-1,4-dihydro-quinoline-3-carboxylic acid]
- MIC [6]: 0.12 µg/mL (≈ 0.258 µM)
- MIC [7]: 4 µg/mL (≈ 8.59 µM)
- MIC [10]: 0.5 µg/mL (≈ 1.07 µM)
- MIC [8]: 0.5 µg/mL (≈ 1.07 µM)
- MIC [5]: 2 µg/mL (≈ 4.3 µM)
